Results published in ChEMBL document CHEMBL4017458, “Discovery of selective, orally bioavailable, N-linked arylsulfonamide Nav1.7 inhibitors with pain efficacy in mice” (Bioorg Med Chem Lett, 2017).
≈ marks a conversion by molar mass, not a printed value.

Legend:
Rattus norvegicus = test: Intrinsic clearance in rat at 0.05 mg/kg, iv administered in cassette format or 2 mg/kg, iv administered as single dose or 10 mg/kg, po; assay type: ADME, organism-based; details: in vivo
[1] = Oral bioavailability in rat at 10 mg/kg; assay type: ADME, organism-based; details: in vivo
[2] = Lipophilicity, log D of compound by HPLC analysis; assay type: physicochemical
Brain = test: Drug uptake in C57BL/6 mouse brain at 30 mg/kg, po; assay type: ADME, organism-based; details: in vivo
[3] = Drug uptake in CSF of C57BL/6 mouse at 30 mg/kg, po; assay type: ADME, organism-based, Cerebrospinal fluid; details: in vivo
[4] = Kinetic solubility of the compound at pH 7 by HPLC analysis; assay type: physicochemical; details: buffer, read-out: Kinetic_solubility
[5] = Tmax in po dosed C57BL/6 mouse; assay type: ADME, organism-based; details: in vivo
[6] = Kinetic solubility of the compound at pH 2 by HPLC analysis; assay type: physicochemical; details: buffer, read-out: Kinetic_solubility
Plasma [7] = test: Plasma concentration in C57BL/6 mouse at 3 to 30 mg/kg, po; assay type: ADME, organism-based; details: in vivo
Plasma [8] = test: Plasma concentration in C57BL/6 mouse at 1 to 10 mg/kg, po; assay type: ADME, organism-based; details: in vivo

CL (Rattus norvegicus) [mL/min/kg] | bioavailability [1] [%] | logD [2] | SMILES | other results
810 | 57 | 1.5 | O=S(=O)(Nc1nccs1)c1cc(Cl)c(NC[C@]23CCCN2C[C@@H](F)C3)cc1F | –
71 | 36 | 1.1 | Cc1csc(NS(=O)(=O)c2cc(Cl)c(NCC34CCCN3CCC4)cc2F)n1 | –
61 | – | -0.2 | O=S(=O)(Nc1ccncn1)c1cc(Cl)c(NCC23CCCN2CCC3)cc1F | –
– | – | 0.7 | O=S(=O)(Nc1cscn1)c1cc(Cl)c(NCC23CCCN2CCC3)cc1F | –
– | – | 1.7 | O=S(=O)(Nc1nccs1)c1cc(Cl)c(NCC23CCCN2CC(F)(F)C3)cc1F (configuration not stated) | –
630 | – | 1.3 | Cc1nc(NS(=O)(=O)c2cc(Cl)c(NCC34CCCN3CCC4)cc2F)sc1F | –
460 | 61 | 1.7 | CC1(C)CN2CCC[C@]2(CNc2cc(F)c(S(=O)(=O)Nc3nccs3)cc2Cl)C1 | solubility kinetic [4]: 28 µM (≈ 12.9 µg/mL); Tmax [5]: 3 h; solubility kinetic [6]: 143 µM (≈ 65.6 µg/mL); concentration (Plasma [8]): 250 nM

The remaining lines, values behind:

SMILES | CL (Rattus norvegicus) [mL/min/kg] | bioavailability [1] [%] | logD [2] | other results
O=S(=O)(Nc1nccs1)c1cc(Cl)c(NCCC23CCCN2CCC3)cc1F | 1600 | 30 | 0.6 | –
O=S(=O)(Nc1cccc(F)n1)c1cc(Cl)c(NCC23CCCN2CCC3)cc1F | 610 | 26 | 1 | –
O=S(=O)(Nc1ncns1)c1cc(F)c(NCC23CCCN2CCC3)cc1F | 62 | 4 | 0 | –
O=S(=O)(Nc1ncc(F)s1)c1cc(Cl)c(NCC23CCCN2CCC3)cc1F | 230 | 55 | 1 | –
O=S(=O)(Nc1nccs1)c1cc(Cl)c(NCC23CCCCN2CCCC3)cc1F | 3000 | – | 2.2 | –
O=S(=O)(Nc1ncns1)c1cc(Cl)c(NCC23CCCN2CCC3)cc1F | 660 | – | 0.4 | –
O=S(=O)(Nc1ncc(Cl)s1)c1cc(Cl)c(NCC23CCCN2CCC3)cc1F | 780 | 45 | 1.3 | –
CC1(C)CN2CCC[C@@]2(CNc2cc(F)c(S(=O)(=O)Nc3nccs3)cc2Cl)C1 | 850 | 45 | 1.7 | –
O=S(=O)(Nc1nccs1)c1cc(Cl)c(NCC23CCCN2CCC3)cc1F | – | 40 | 0.7 | Drug uptake (Brain): 6%; Drug uptake [3]: 1%; solubility kinetic [4]: 43 µM (≈ 18.5 µg/mL); Tmax [5]: 3 h; solubility kinetic [6]: 159 µM (≈ 68.5 µg/mL); concentration (Plasma [7]): 420 nM
O=S(=O)(Nc1nccs1)c1cc(Cl)c(NC[C@@]23CCCN2C[C@H](F)C3)cc1F | – | – | 1.5 | –
Cc1cnc(NS(=O)(=O)c2cc(Cl)c(NCC34CCCN3CCC4)cc2F)s1 | 560 | – | 1.1 | –
